Data taken from patent US10759796B2, “CXCR4 inhibitors and uses thereof” (X4 Pharmaceuticals, Inc., priority 2016, dated 2020).

Tests used:
[1] = Fraction of drug unbound to plasma proteins, rat; assay type: in vitro ADME; conditions: read-out: Fu (p)
[2] = MTD and pharmacokinetics and brain penetration after PO administration; assay type: in vivo, Male C57BL/6 Mice; conditions: male; for Kp / Kp uu: Mouse; for AUC(0-t): C57BL/6
Method: Example 30: MTD and Pharmacokinetics and Brain Penetration Experiment to Determine Brain and Plasma Concentration of Compounds after PO Administration to Male C57BL/6 Mice
The study was designed with 2 groups (18 animals and 24 animals) consists of administrating the drug [PO-50, 100, 150, 225, 300 mg/kg via oral gavage] and collecting samples at terminal bleeding for plasma, brain and CSF at 0.25, 0.5, 1, 4, 8, and 24 hr. All PO dosing solutions were prepared in 50 mM citrate buffer (pH 4.0).
The blood collection was performed as follows: the animal was restrained manually at the designated time points, approximately 500 μL of blood sample was collected via cardiac puncture vein into EDTA-2K tubes. The whole blood needed to be divided into two parts; one part was placed in the tube containing EDTA-2K for plasma generation and the other was used for the hematology assay, respectively. The blood samples for plasma generation were maintained in wet ice first and centrifuged to obtain plasma (2000 g, 4° C., 5 min) within 15 minutes post sampling. The brain collection was performed as follows: a mid-line incision was made in the animal's scalp and the skin was retracted. Using small bone cutters and rongeurs, the skull overlying the brain was removed. The brain was removed using a spatula and rinsed with cold saline. The brain was placed in screw-top tubes, and then stored at −70° C. until analysis. The CSF collection was performed as follows: a mid line incision was made on the neck. The muscle under the skin was cut to expose the cisterna magna. The cisterna magna was penetrated with the sharp end of one capillary (Burn one end of capillary to make it sharp). The CSF was sucked spontaneously into the capillary.
Plasma Sample Preparation:
An aliquot of 30 μL sample was added with 100 μL MeCN containing 100 ng/mL IS (Dexamethasone). The mixture was vortexed for 10 min and centrifuged at 5800 rpm for 10 min. An aliquot of 40 μL supernatant was added to 40 μL H2O and the mixture was vortexed for 5 min. An aliquot of 2 μL supernatant was injected for LC-MS/MS analysis.
Brain Sample Preparation:
An aliquot of 30 μL brain homogenate (brain:PBS=1:3, w/v) sample was added to 100 μL MeCN containing 100 ng/mL IS (Dexamethasone). The mixture was vortexed for 10 min and centrifuged at 5800 rpm for 10 min. An aliquot of 40 μL supernatant was added to 40 μL H2O and the mixture was vortexed for 5 min. An aliquot of 2 μL supernatant was injected for LC-MS/MS analysis.
An aliquot of 3 μL sample was added to a mixture of 6 CSF, 9 μL MeOH/H2O (1/1), 40 μL MeCN containing 200 ng/mL IS (Dexamethasone), and 116 μL H2O. The mixture was vortexed for 5 min. An aliquot of 4 μL was injected for LC-MS/MS analysis.
The sample analysis was performed on UPLC-MS/MS-02 (Triple Quad 4000) under the following conditions: positive ion, ESI, MRM detection using dexamethasone as internal standard. HPLC conditions: mobile phase A: H2O-0.1% formic acid, mobile phase B: MeCN-0.1% formic acid on: ACQUITY UPLC HSS T3 (2.1×50 mm, 1.8 μm) at 60° C.

[3] = test system: brain proteins; assay: Fraction of drug unbound to brain proteins, mouse; assay type: in vitro ADME
[4] = Mouse brain uptake assay, 0-24 h, 4 time points; assay type: in vivo; conditions: male, 3 mg/kg IV, 4 time points; for Kp / Kp uu: CD1, brain and plasma; for Kp / clearance / half-life / Kp uu: Mouse; for clearance / half-life: CD1, plasma; for half-life: read-out: t½ (converted)
Method: The study design (9 animals) consisted of administrating the drug (IV: 3 mg/kg (5 mL/kg) via tail vein injection) and collecting samples at terminal bleeding for plasma and brain at 0.083, 0.5 and 1 h. The blood collection was performed as follows: the animal was restrained manually and approximately 150 μL blood/time point was collected into a dipotassium EDTA tube via retro orbital puncture under anesthesia with isoflurane. The blood sample was put on ice and centrifuged to obtain a plasma sample (2000 g, 5 min under 4° C.) within 15 minutes. The brain collection was performed as follows: a mid-line incision was made in the animal's scalp and the skin was retracted. Using small bone cutters and rongeurs, the skull overlying the brain was removed. The brain was removed using a spatula and the brain rinsed with cold saline. The brain was placed in screw-top tubes, and the tubes were stored at −70° C. until analysis. The IV dosing solution was prepared in 50 mM citrate buffer (pH 4.0) at 0.6 mg/mL.
An aliquot of 30 μL sample was added to 150 μL MeCN containing 50 ng/mL IS (Dexamethasone). The mixture was vortexed for 5 min and centrifuged at 14,000 rpm for 5 min. An aliquot of 5 μL supernatant was injected for LC-MS/MS analysis.
An aliquot of 30 μL brain homogenate (brain:PBS=1:3, w/v) sample was added to 150 μL IS in ACN (Dexamethasone, 50 ng/mL). The mixture was vortexed for 5 min and centrifuged at 14,000 rpm for 5 min. An aliquot of 5 μL supernatant was injected for LC-MS/MS analysis.
The sample analysis was performed on LCMS/MS-003 (API4000, triple quadruple) under the following conditions: positive ion, ESI, MRM detection using dexamethasone as internal standard. HPLC conditions: mobile phase A: H2O (0.025% formic acid (FA) with 1 mM NH4OAc); mobile phase B: MeOH (0.025% FA with 1 mM NH4OAc) on Waters X-Bridge C18 (2.1×50 mm, 2.5 μm) column at 60° C.
A similar experiment was performed with 4 time points taken from 0-24 h.

[5] = test system: plasma proteins; assay: Fraction of drug unbound to plasma proteins, mouse; assay type: in vitro ADME; conditions: Mouse plasma proteins (Table 10)
[6] = C57BL/6, brain and plasma, single administration, D1-50 mg/kg PO
[7] = C57BL/6, brain, multiple administration, D5-300 mg/kg PO
[8] = CD1, Mouse brain, read-out: AUClast (b)
[9] = CD1, Mouse plasma, read-out: AUClast (p)

| AUC(0-t) [4, 8] | AUC(0-t) [4, 9] | Kp [4] | clearance [4] | half-life [4] | Fu (p) % [5] | Kp uu [4] | Compound | fraction unbound [1] | other results |
| --- | --- | --- | --- | --- | --- | --- | --- | --- | --- |
| 34800 ng·h/mL | 6590 ng·h/mL | 5.29 | 7.22 mL/min/kg | 6.02 h | 5.3% | 0.6 | Cc1cccnc1[C@@H]1CCC[C@H](c2nc3cccc(N4CCN(C)CC4)n3c2Cl)N1 [Compound I-146] | 0.07 | – |
| 1360 ng·h/mL | 1720 ng·h/mL | 0.79 | 28.7 mL/min/kg | 4.72 h | 24.9% | 0.22 | Cc1cccnc1[C@@H]1CCC[C@H](c2cn3c(N4CCN(C)CC4)cccc3n2)N1 [Compound I-187] | – | Fu (b) % ([3]; Mouse brain proteins (Table 10)): 7.1% |

Further lines, the compound ahead of its results:

| Compound | AUC(0-t) [4, 8] | AUC(0-t) [4, 9] | Kp [4] | clearance [4] | half-life [4] | Fu (p) % [5] | Kp uu [4] | fraction unbound [1] | other results |
| --- | --- | --- | --- | --- | --- | --- | --- | --- | --- |
| CN1CCN(c2cccc3nc([C@H]4CCC[C@@H](c5ncccc5Cl)N4)cn23)CC1 (racemic) [Compound I-149] | – | – | – | – | – | – | – | 0.2 | – |
| CN1CCN(c2cccc3nc([C@H]4CCC[C@@H](c5ncccc5Cl)N4)cn23)CC1 (single isomer, unassigned) [Compound I-188] | – | – | – | – | – | – | – | 0.308 | Kp [2, 6]: 2.49; Kp uu [2, 6]: 0.94; Kp [2, 7]: 5.61; Kp uu [2, 7]: 2.12; AUC(0-t) ([2]; Mouse brain, multiple administration, D5-300 mg/kg PO, read-out: AUClast (b)): 430000 ng·h/mL; AUC(0-t) ([2]; Mouse brain, single administration, D1-50 mg/kg PO, read-out: AUClast (b)): 58600 ng·h/mL; AUC(0-t) ([2]; Mouse plasma, multiple administration, D5-300 mg/kg PO, read-out: AUClast (p)): 76600 ng·h/mL; AUC(0-t) ([2]; Mouse plasma, single administration, D1-50 mg/kg PO, read-out: AUClast (p)): 23500 ng·h/mL; Fu (b) ([3]; Mouse brain proteins (Table 13)): 5.4% |
| CN1CCN(c2cccc3nc([C@@H]4CCC[C@H](c5ncccc5Cl)N4)cn23)CC1 (single isomer, unassigned) [Compound I-189] | – | – | – | – | – | – | – | 0.248 | – |
| Cc1cccnc1[C@@H]1CCC[C@H](c2cn3c(-c4cccnc4)cccc3n2)N1C [Compound I-6] | 3170 ng·h/mL | 1040 ng·h/mL | 3.05 | 48.3 mL/min/kg | 3.6 h | – | – | – | – |
